# Patent US20090162855A1, “Identification of Genetic Variants Associated with Increased Severity of Pulmonary Disease” (CASE WESTERN RESERVE UNIVERSITY, priority 2007, published 2009)
# Square brackets hold non-standard residues; d marks the D form. Peptide text beside a SMILES is read from it.
# Columns and labels:
# EDNRA mRNA = assay: Quantitative RT-PCR of EDNRA mRNA in smooth muscle cell lines treated with estrogen; assay type: cell-based, human; conditions: 9 smooth muscle cell lines (5 female, 4 male), estrogen 24 hours, vs unstimulated cells, 18S rRNA internal control
# Description: Effects of these variants on EDNRA mRNA levels were examined. Primary airway smooth muscle cells from 10 non-CF individuals were harvested for DNA and RNA. Airway smooth muscle cells were cultured from tracheas obtained from autopsy. Cells were isolated from human trachealis muscle by digesting with collagenase and elastase in the presence of soybean trypsin inhibitor at 37° C. as previously described. The cells were harvested by centrifugation after filtering through Nytex and grown in Dulbecco's modified eagle's medium (DMEM/F12 1:1) containing 10% fetal bovine serum, 100 U/ml penicillin and 100 μg/ml streptomycin at 37° C. in a humidified atmosphere with 5% CO2 and 95% air. DNA samples were genotyped for rs1801708 and rs5335 and EDNRA mRNA quantified from total RNA by real time RT-PCR. EDNRA mRNA was quantified relative to 18s rRNA in 10 airway smooth muscle cell lines and compared by genotype. RNA was isolated from airway smooth muscle cells using the Qiagen RNeasy kit. […] A Ct was established for each sample and compared to standard curves to determine mRNA quantity. […] Values are expressed as a ratio of EDNRA: 18s copies. […]
# Nine smooth muscle cell lines were exposed to estrogen and mRNA levels compared to unstimulated cells. […] Quantitative RT-PCR was carried out to determine copy number using 18S rRNA as an internal control. […]
# [1] = tested on: tracheal smooth muscle cells; assay: Mitogenic index by BrdU incorporation in primary cultures of tracheal smooth muscle cells; assay type: cell-based, human; conditions: for proliferation (BrdU incorporation), treated vs untreated: cultures from 9 individuals, estrogen 72 hrs
# Description: (§1) A cellular phenotype that could potentially explain the genotype-phenotype association is a difference in smooth muscle proliferation. To be able to assess this in vitro, we have carried out studies examining the mitogenic effects of the receptor agonist, endothelin, on cultured smooth muscle cells, as well as those of estrogen and Transforming Growth Factor Beta 1 (TGFβ1). In these studies, TGFβ1 is used as a control mitogen in that it exerts its effect on proliferation independent of the endothelin receptor. […] Primary cultures of tracheal smooth muscle cells from 4 individuals were treated with TGFβ1, estrogen, endothelin, or estrogen and endothelin (Estr/Endo) for 72 hrs, and assayed for mitogenic index by BrdU incorporation (FIG. 8A) or for cell number (FIG. 8B). Values shown are ratios of treated to untreated (control) cells grown simultaneously. Each cell line and condition was carried out in triplicate. […] An EDNRA antagonist, BQ123 (Sigma), was included at 1 μM to determine if EDNRA-mediated effects could be blocked.
# A larger group of cell lines stratified by genotype was examined. Primary cultures of tracheal smooth muscle cells from 9 individuals were treated with estrogen for 72 hrs, assayed for BrdU incorporation and compared to control cultures (no estrogen). FIG. 9 provides the ratio of treated to untreated cells. […] Treatment with estrogen appears to result in increased proliferation, but the effect is genotype dependent. This is in contrast to other reports of vascular smooth muscle in which estrogen inhibits proliferation.
# [2] = tested on: tracheal smooth muscle cells; assay type: cell-based, human; conditions: cultures from 4 individuals, 72 hrs
# Description: as §1
# human ASM cells = assay: Actin stress fiber formation (TRITC-phalloidin) in cultured ASM cells; assay type: cell-based; conditions: cultured in presence of ET-1 for 24 hours; preliminary data
# Description: FIG. 11 is a pair of micrographs of cultured ASM cells placed in either serum free media (A) or media containing ET-1 (B) for 24 hr; and
# EDNRA is expressed on airway and vascular smooth muscle. Using indirect immunocytochemical staining of human ASM cells from the trachealis muscle retrieved from necroscopy tissue of 53 individuals, we have determined these cells consistently display EDNRA on the cell membrane (FIG. 10—staining is predominantly along cell membranes). […] This implies a functional receptor with ligand binding and intact intracellular signaling pathways.
# smooth muscle cells = assay: Intracellular calcium mobilization from sarcoplasmic reticulum measured using Fura-2; assay type: cell-based; conditions: 24 hrs in endothelin, washout
# Description: FIG. 12 is a graph showing the response of cultures of smooth muscle cells to endothelin-1 (ET-1) acutely (control) and sarcoplasmic reticulum release of calcium measured by Fura-2 fluorescence ratios.
# Smooth muscle cells of various EDNRA genotype combinations were examined for changes in intracellular calcium in response to endothelin. The effects of chronic exposure were assessed by incubating the cells for 24 hrs in endothelin, followed by a brief washout (30 minutes) and then re-exposure to endothelin and measurement of calcium release. […] For these assays, intracellular calcium mobilization from sarcoplasmic reticulum was measured using Fura-2. No significant differences were observed between subjects with regards to magnitude or duration of response from acute stimulation (FIG. 12, control). However, if cultured for 24 hrs in the presence of endothelin, washed out just before reexposure, there is a significant difference between subjects in the magnitude of response (FIG. 12, ET-1 conditioned).
compound,measurement,setting,value
estrogen,increase of EDNRA mRNA levels in response to hormone treatment,EDNRA mRNA,approximately 5 fold
same,"proliferation (BrdU incorporation), treated vs untreated","[1]; cells with ""protective"" GG genotype",no effect
same,"proliferation (BrdU incorporation), treated vs untreated","[1]; cells with ""severe"" AA genotype",increase proliferation
Transforming Growth Factor Beta 1 [TGFβ1],"mitogenic index (BrdU incorporation), ratio of treated to untreated cells","[1]; cultures from 4 individuals, 72 hrs",tripled
same,"cell number, ratio of treated to untreated cells",[2],did not significantly alter cell number
CC[C@H](C)[C@H](NC(=O)[C@H](CC(=O)O)NC(=O)[C@H](CC(C)C)NC(=O)[C@H](Cc1c[nH]cn1)NC(=O)[C@@H]1CSSC[C@H](N)C(=O)N[C@@H](CO)C(=O)N[C@H]2CSSC[C@H](NC(=O)[C@H](CCC(=O)O)NC(=O)[C@H](CCCCN)NC(=O)[C@H](CC(=O)O)NC(=O)[C@H](CCSC)NC(=O)[C@H](CC(C)C)NC(=O)[C@H](CO)NC(=O)[C@H](CO)NC2=O)C(=O)N[C@@H](C(C)C)C(=O)N[C@@H](Cc2ccc(O)cc2)C(=O)N[C@@H](Cc2ccccc2)C(=O)N1)C(=O)N[C@H](C(=O)N[C@@H](Cc1c[nH]c2ccccc12)C(=O)O)[C@@H](C)CC [endothelin-1],formation of actin stress fibers,human ASM cells,increases the formation of actin stress fibers
same,calcium release activity lost on re-exposure,"smooth muscle cells; cells with ""adverse"" genotypes",10-15%
same,"calcium release activity on re-exposure, of pre-exposure activity","smooth muscle cells; cells with ""protective"" genotype of 3′ markers",15%
CC(C)C[C@@H]1NC(=O)[C@@H](C(C)C)NC(=O)[C@@H]2CCCN2C(=O)[C@@H](CC(=O)O)NC(=O)[C@@H](Cc2c[nH]c3ccccc23)NC1=O [BQ123] (cyclo(L[dW][dD]P[dV])),mitogenic index of cells with EDNRA antagonist included,[1]; BQ123 at 1 μM,reduced the mitogenic index
